{
  "source": "patent US6670187B2",
  "about": "“Mutant Plk protein and gene encoding the same” (Riken, priority 2000, dated 2003)",
  "key": {"Plk protein": {"system": "Plk protein", "test": "Western blotting of Plk protein level after geldanamycin treatment", "format": "cell-based, human", "conditions": "for Sensitivity of Plk to GA: Western blotting", "description": "The cells were lysed with TENSV buffer (Schulte, T. W., et al., J. Biol. Chem., 270, 24585-24588, 1995; Hutchison, K. A., et al., J. Biol. Chem., 267, 13952-13957, 1992) at 4° C. with sonication. The lysates were subjected to electrophoresis on an SDS polyacrylamide gel. Proteins were transferred to Immobilon PVDF membrane (Millipore) and immunoblotted with anti-Plk antibody (Zymed and Santa Cruz), anti-Hsp90 antibody (AC88; Stressgen), anti-GST antibody (Santa Cruz), anti-α-tubulin antibody (Amersham), or anti-Raf-1 antibody (Santa Cruz). Detection was performed with an enhanced chemiluminescence reagent (Pierce).\nThe immune complexes were collected by immunoprecipitation using anti-Plk antibody and electrophoresed on an SDS-polyacrylamide gel. […] Aliquots of cell lysates were immunoprecipitated with an anti-Plk or anti-Hsp90 antibody. In the same manner, aliquots of non-immunoprecipitated cell lysates were used for Western blotting.\nAliquots of cell lysates were immunoblotted with the indicated antibodies."}, "U937 cells": {"system": "U937 cells", "test": "Cell viability of geldanamycin-treated U937 cells", "format": "cell-based, human", "conditions": "100 nM"}, "Hsp90": {"system": "Hsp90", "test": "In vitro binding assay of GST-fused Plk proteins with HL-60 lysate, Hsp90 detected", "parameters": "species or system human", "conditions": "1 μg GST-fused protein, Western blotting", "description": "(§1) The PCR products were cloned into pGEM-T Easy vector (Promega) and nucleotide sequence analysis was carried out by using the dideoxynucleotide chain-termination procedure with an Applied Biosystems automated sequencer. The sequence was confirmed to be identical with a previous report (Golsteyn, R., et al., J. Cell Sci., 107, 1509-1517, 1994). Plk cDNA was inserted into pGEX-2T, and GST-fused Plk was expressed in DH5α with 0.1 mM isopropyl β-D-thiogalacto-pyranoside.\n(§2) For the binding assay, 1 μg of GST-fused proteins was incubated with the lysate of HL-60 cells (1 mg) in TENSV buffer. GST-fused Plk proteins were precipitated with glutathione-agarose (Sigma). Hsp90 or α-tubulin associated with GST-fused Plk proteins was detected by Western blotting using an anti-Hsp90 or anti-α-tubulin antibody.\n(§3) The circle stands for the GST protein, the dotted bar for the kinase domain (residues 53-305) and the black box for the polo-box (residues 410-439). b; GST-fused Plks, expressed in Escherichia coli, were collected with glutathione-agarose, and incubated with the lysate of HL-60 cells. After incubation, GST-fused Plks were precipitated with glutathione-agarose. Hsp90 or α-tubulin associated with GST-fused Plks was detected by Western blotting using an anti-Hsp90 or anti-α-tubulin antibody."}, "α-tubulin": {"system": "α-tubulin", "test": "In vitro binding assay of GST-fused Plk proteins with HL-60 lysate, α-tubulin detected", "parameters": "species or system human", "conditions": "1 μg GST-fused protein, Western blotting", "description": "as §1, §2, §3"}},
  "note": "Peptide text beside a SMILES is read from it. * marks the point of attachment. Cbz = O=C(OCc1ccccc1)*",
  "data": [
    {"compound": "CC(C)C[C@@H](C=O)NC(=O)[C@H](CC(C)C)NC(=O)[C@H](CC(C)C)NC(=O)OCc1ccccc1", "note": "[MG132] (Cbz-Leu-Leu-Leu-aldehyde)", "values": [
      {"measurement": "geldanamycin-induced destabilization of Plk protein", "setting": "Plk protein; co-treatment with proteasome inhibitor", "value": "inhibited"}
    ]},
    {"compound": "COC1=C2C[C@@H](C)C[C@H](OC)[C@H](O)[C@@H](C)/C=C(\\C)[C@H](OC(N)=O)[C@@H](OC)/C=C\\C=C(/C)C(=O)NC(=CC1=O)C2=O", "note": "[geldanamycin]", "values": [
      {"measurement": "cell viability", "setting": "U937 cells; 12 hours", "value": "without decreasing cell viability"},
      {"measurement": "cell viability (majority of cells died)", "setting": "U937 cells; after 2 days", "value": "15.4±3.2", "unit": "%"},
      {"measurement": "Sensitivity of Plk to GA", "setting": "Plk protein; A431 cells, Plk S487G, P509S", "value": "−"},
      {"measurement": "Sensitivity of Plk to GA", "setting": "Plk protein; A549 cells, Plk D457G", "value": "−"},
      {"measurement": "Sensitivity of Plk to GA", "setting": "Plk protein; HL-60 cells, wt Plk", "value": "+ (Plk protein decreased after GA treatment.)"},
      {"measurement": "Sensitivity of Plk to GA", "setting": "Plk protein; HeLa cells, wt Plk", "value": "+ (Plk protein decreased after GA treatment.)"},
      {"measurement": "Sensitivity of Plk to GA", "setting": "Plk protein; Hep G2 cells, Plk N496S, R512W", "value": "−"},
      {"measurement": "Sensitivity of Plk to GA", "setting": "Plk protein; Jurkat cells, wt Plk", "value": "+ (Plk protein decreased after GA treatment.)"},
      {"measurement": "Sensitivity of Plk to GA", "setting": "Plk protein; K562 cells, wt Plk", "value": "+ (Plk protein decreased after GA treatment.)"},
      {"measurement": "Sensitivity of Plk to GA", "setting": "Plk protein; MKN74 cells, Plk E569K", "value": "−"},
      {"measurement": "Sensitivity of Plk to GA", "setting": "Plk protein; U937 cells, wt Plk", "value": "+ (Plk protein decreased after GA treatment.)"}
    ]},
    {"compound": "K82R: GST-fused kinase negative Plk mutant", "values": [
      {"measurement": "binding to Hsp90", "setting": "Hsp90", "value": "can bind"}
    ]},
    {"compound": "Plk/A431: GST-fused mutant Plk from A431 cells (S487G, P509S in C-terminus)", "values": [
      {"measurement": "association of tubulin with Plk", "setting": "α-tubulin", "value": "little effect"},
      {"measurement": "binding to Hsp90", "setting": "Hsp90", "value": "unable to bind"}
    ]},
    {"compound": "Plk/Hep G2: GST-fused mutant Plk from Hep G2 cells (N496S, R512W in C-terminus)", "values": [
      {"measurement": "association of tubulin with Plk", "setting": "α-tubulin", "value": "little effect"},
      {"measurement": "binding to Hsp90", "setting": "Hsp90", "value": "unable to bind"}
    ]},
    {"compound": "full-length Plk: GST-fused human full-length wild-type Plk expressed in Escherichia coli", "values": [
      {"measurement": "binding to Hsp90", "setting": "Hsp90", "value": "can bind"}
    ]}
  ]
}
